Patent publication US20150072933A1, “NOVEL SEQUENCES FOR THE CONTROL OF REPRODUCTION IN FISH” (Yissum Research Development Company of the Hebrew …, priority 2011, published 2015)
Entries after “also recorded” stand apart in the source; their conditions may differ. *1 amine or outer side, *2 acyl side, *3 side chain or, on linkers, in order; H or OH if unused. Where a SMILES comes first, the peptide text is derived from it. [ ]: non-standard residue; d: D form. Suc = O=C(CCC(=O)[*:2])[*:1]; NMeV = CN[C@H](C(=O)O)C(C)C

Tests used:
[1] = test system: Mature female carp; assay: Gonadotropin release from mature carp in vivo (LH by ELISA); details: mature female carp just before spawning, injected 20 μg/kg body weight; listed as NKBa analogue
Experimental: Mature female carp, just before spawning, were injected with NKBa, NKBb and NKF analogues, denoted by SEQ ID NO.44, SEQ ID NO.45 and SEQ ID NO.46, respectively (20 μg/kg body weight). LH levels was measured by specific ELISA, according to Aizen et al. 2012 [33].

[2] = test system: zfTac3ra; assay: Receptor transactivation assay, SRE-Luc reporter (PKC activation), COS-7 cells expressing zfTac3ra; type: cell-based, zebrafish; details: mean ± SEM
Experimental: (§1) In order to study the signaling pathways of the novel zebrafish NKBs, the entire coding regions of zftac3ra (denoted by SEQ ID NO:6) or zftac3rb (denoted by SEQ ID NO:7), or the cDNA clone for human NK3R (obtained from the Missouri S&T cDNA Resource Center, were inserted into pcDNA3.1 (Invitrogen). The luciferase assay was conducted according to Biran et al., 2008 [4] COS-7 cells were grown in DMEM supplemented with 10% FBS, 1% glutamine, 100 U/ml penicillin, and […] streptomycin (Biological Industries) under 5% CO2 until confluent. Cotransfection of either pc-zftac3ra, pc-zftac3rb or pc-Htac3r (at 3 μg/plate), a reporter plasmid (at 2 μg/plate), and pCMV-β-galactosidase (at 1 μg/plate) was carried out with FuGENE 6.0 reagent (Roche). The cells were serum starved for 36 h, stimulated with vehicle or various concentrations of either human (Sigma) or zebrafish NKBs for 6 h, and then harvested and analyzed. Lysates prepared from the harvested cells were assayed for both luciferase activity and β-galactosidase activity, which was used as an internal standard to normalize the luciferase activity directed by the test plasmid. Transfection experiments were performed in triplicate with three independently isolated sets. Protein structure prediction of zebrafish NKBa, NKBb or NKF were performed on I-Tasser servers.
(§2) The response, binding selectivity and signal transduction pathways of the novel tachykinin receptors to their agonists were evaluated by functional expression analysis, using COS-7 cells.
(§3) The NKB analogues (i.e. the NKBa-analog, NKBb-analog and NKF-analog, as denoted by SEQ ID NO. 44-46) were first analyzed in comparison to their native forms in a transactivation assay, using reporter genes for specific signal transduction pathways. To validate the specificity of the serum-responsive element (SRE)-Luc and cAMP-responsive element (CRE)-Luc reporter systems, specific activators for PLC/PKC and AC/PKA signaling pathways were used in control experiments.
(§4) Thus, the ability of the three novel piscine peptides (namely, NKBa, NKBb and NKF, denoted by SEQ ID NO.40, 41 and 42), as well as the ability of the three analogous agonistic peptides, namely, NKBa-analog, NKBb-analog and NKF-analog, to differentially activate the different tac3 receptors, using SRE as a reporter gene that follows PKC activation and CRE as a reporter gene for the PKA pathway, was tested. Human NK3R (human NKB receptor) and human NKB served as controls.

[3] = test system: zfTac3rb; assay: Receptor transactivation assay, SRE-Luc reporter (PKC activation), COS-7 cells expressing zfTac3rb; type: cell-based, zebrafish; details: mean ± SEM
Experimental: as §1, §2, §3, §4

[4] = test system: Juvenile Tilapia; assay: Gonadotropin release in vivo from juvenile tilapia (plasma LH and FSH by ELISA); set-up: species or system Tilapia (Oreochromis niloticus); details: Juvenile Tilapia, injected at 0.5 or 5 μg/Kg BW
Experimental: Tilapia females (two-months old) were injected with the NKBa analogue denoted by SEQ ID NO.44 or the NKF analogue denoted by SEQ ID NO.46 at 0.5 or 5 μg/kg body weight (BW). Blood was withdrawn from the caudal vein and plasma Luteinizing hormone (LH) and Follicle-stimulating hormone (FSH) levels were measured using a homologous sensitive enzyme-linked immunosorbent assay (ELISA), as described by Aizen et al. 2007 [33].

[5] = test system: Tilapia pituitary cells; assay: Gonadotropin release from tilapia pituitary dispersed cells; type: cell-based; details: 10 nM, 4 hr
Experimental: Tilapia pituitary cells were subjected to enzymatic dispersion. Pituitary cells were stimulated with 10 nM of the NKBa or NKF analogue, denoted by SEQ ID NO.44 and SEQ ID NO.46, respectively, for 4 hr, when the medium was collected. […] Stimulation of tilapia pituitary cells with GnRH at [10 nM] was used as a control.

[6] = test system: zfTac3ra; assay: Receptor transactivation assay, CRE-Luc reporter (PKA activation), COS-7 cells expressing zfTac3ra; type: cell-based, zebrafish; details: mean ± SEM
Experimental: as §1, §2, §3, §4

[7] = test system: zfTac3rb; assay: Receptor transactivation assay, CRE-Luc reporter (PKA activation), COS-7 cells expressing zfTac3rb; type: cell-based, zebrafish; details: mean ± SEM
Experimental: as §1, §2, §3, §4

[8] = target: T1, huNK3R (Homo sapiens, UniProt P29371); assay: Receptor transactivation assay, SRE-Luc reporter (PKC activation), COS-7 cells expressing human NK3R; type: cell-based; details: for SRE-driven luciferase activity, response: COS-7 cells transiently transfected with human NK3R; for EC50: Table 5, COS-7 cells, SRE-Luc follows PKC activation, mean ± SEM
T1 construct: host or cells: COS-7
T1 sequence (P29371 1-465): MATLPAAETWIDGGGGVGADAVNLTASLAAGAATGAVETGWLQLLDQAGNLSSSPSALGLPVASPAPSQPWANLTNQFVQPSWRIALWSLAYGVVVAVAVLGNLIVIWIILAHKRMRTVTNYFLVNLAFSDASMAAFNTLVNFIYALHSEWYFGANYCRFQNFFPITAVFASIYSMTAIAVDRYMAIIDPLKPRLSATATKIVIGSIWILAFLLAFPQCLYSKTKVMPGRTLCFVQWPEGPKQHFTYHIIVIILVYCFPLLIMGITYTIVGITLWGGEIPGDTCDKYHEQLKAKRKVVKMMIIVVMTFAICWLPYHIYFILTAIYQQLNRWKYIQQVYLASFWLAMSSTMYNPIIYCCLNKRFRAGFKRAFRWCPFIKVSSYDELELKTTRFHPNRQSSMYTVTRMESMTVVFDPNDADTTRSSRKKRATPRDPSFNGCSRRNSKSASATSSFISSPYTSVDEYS
Experimental: In order to study the signaling pathways of the novel zebrafish NKBs, the entire coding regions of zftac3ra (denoted by SEQ ID NO:6) or zftac3rb (denoted by SEQ ID NO:7), or the cDNA clone for human NK3R (obtained from the Missouri S&T cDNA Resource Center, were inserted into pcDNA3.1 (Invitrogen). The luciferase assay was conducted according to Biran et al., 2008 [4] COS-7 cells were grown in DMEM supplemented with 10% FBS, 1% glutamine, 100 U/ml penicillin, and 100 mg/ml streptomycin (Biological Industries) under 5% CO2 until confluent. Cotransfection of either pc-zftac3ra, pc-zftac3rb or pc-Htac3r (at 3 μg/plate), a reporter plasmid (at 2 μg/plate), and pCMV-β-galactosidase (at 1 μg/plate) was carried out with FuGENE 6.0 reagent (Roche). The cells were serum starved for 36 h, stimulated with vehicle or various concentrations of either human (Sigma) or zebrafish NKBs for 6 h, and then harvested and analyzed. Lysates prepared from the harvested cells were assayed for both luciferase activity and β-galactosidase activity, which was used as an internal standard to normalize the luciferase activity directed by the test plasmid. Transfection experiments were performed in triplicate with three independently isolated sets.

[9] = test system: sexually mature female zebrafish; assay: In vivo effect of NKBs in zebrafish: LH secretion after intraperitoneal injection; details: single intraperitoneal injection; for LH secretion: 20 pmol/g body weight, sexually mature female zebrafish
Experimental: In vivo studies involved administering NKBa, NKBb or NKF and the analogues thereof, denoted by SEQ ID NO. 40-42 and 44-46, respectively to immature fish (20 fish/treatment). The circulating levels of E2, 11KT, LH and FSH were determined prior to hormonal manipulations, in order to confirm that these fish were indeed sexually immature. The fish were injected intramuscularly (i.m.) or intraperitonealy (i.p.) at various doses. Adult female zebra fish were injected intraperitoneally with 20 pmol/g body weight. Control fish were injected with saline. Plasma samples were collected at time 0, and specific times after the administration of the peptide/s, to determine the levels of E2, 11KT, LH and FSH.
To further characterize the role of the NKB/NKBR system in fish reproduction the in vivo biological function of zebrafish NKB peptides was next examined.

[10] = test system: NKB receptors (human NKBR, zebrafish Tac3ra, Tac3rb); assay: Receptor transactivation assay, statements in words across SRE-Luc and CRE-Luc reporters and receptors; type: cell-based
Experimental: as §1, §2, §4

[11] = target: T2, NKB receptors (human NKBR, zebrafish Tac3ra, Tac3rb) (Homo sapiens, UniProt P29371); assay: as above; type: cell-based; details: human NKBR (huNK3R), in both signal transduction systems (SRE-Luc and CRE-Luc)
T2 construct: expressed in transfected cells; host or cells: COS-7
T2 sequence (P29371 1-465): T1 sequence (P29371 1-465)
Experimental: as §1, §2, §4

[12] = Table 7 (native peptides and analogues), PKC activation, read-out: EC50 using SRE, zfTac3ra
[13] = Table 7 (native peptides and analogues), PKC activation, read-out: EC50 using SRE, zfTac3rb
[14] = Table 6 (native peptides and analogues), PKA activation, read-out: EC50 using CRE-Luc, zfTac3ra
[15] = Table 6 (native peptides and analogues), PKA activation, read-out: EC50 using CRE-Luc, zfTac3rb
[16] = Table 5, COS-7 cells, SRE-Luc follows PKC activation, read-out: EC50 SRE-Luc zfTac3ra
[17] = Table 5, COS-7 cells, SRE-Luc follows PKC activation, read-out: EC50 SRE-Luc zfTac3rb
[18] = Table 5, COS-7 cells, CRE-Luc follows PKA activation, read-out: EC50 CRE-Luc zfTac3ra
[19] = Table 5, COS-7 cells, CRE-Luc follows PKA activation, read-out: EC50 CRE-Luc zfTac3rb

SMILES | EC50 [2, 12] | EC50 [3, 13] | EC50 [6, 14] | EC50 [7, 15] | SRE-driven luciferase activity, response [8] | EC50 [8] | EC50 [2, 16] | EC50 [3, 17] | LH secretion [9] | EC50 [6, 18] | EC50 [7, 19] | potency [11] | other results
CC[C@H](C)[C@H](NC(=O)[C@H](CC(=O)O)NC(=O)CCC(=O)O)C(=O)N[C@@H](Cc1ccccc1)C(=O)N(C)[C@H](C(=O)NCC(=O)N[C@@H](CC(C)C)C(=O)N[C@@H](CCSC)C(N)=O)C(C)C [zfNKBa-analog, Succ-Asp-Ile-Phe-N(Me)Val-Gly-Leu-Met-NH2] (Suc-DIF[NMeV]GLM-NH2) | 0.15 ± 0.19 nM | 0.29 nM | 6.94 ± 1.28 nM | 11.9 ± 16.9 nM |  |  |  |  |  |  |  |  | LH level [1]: significant elevation; also recorded: increased the level of LH significantly; FSH secretion [4]: significant increase; LH secretion [4]: significant increase; release of FSH from tilapia pituitary cells [5]: significantly increased; EC50 ([7]; Table 6 (native peptides and analogues), PKA activation, listed as NKBa-analog, read-out: EC50 using CRE-Luc, zfTac3rb): 11.9 nM
CC[C@H](C)[C@H](NC(=O)[C@H](CC(=O)O)NC(=O)[C@H](Cc1c[nH]cn1)NC(=O)[C@H](CCSC)NC(=O)[C@@H](N)CCC(=O)O)C(=O)N[C@@H](Cc1ccccc1)C(=O)N[C@H](C(=O)NCC(=O)N[C@@H](CC(C)C)C(=O)N[C@@H](CCSC)C(N)=O)C(C)C [zfNKBa] (H-EMHDIFVGLM-NH2) | 0.62 ± 0.22 nM | 26.1 nM | 4.75 ± 1.48 nM | 16.4 ± 12 nM | elicited an increased response | 0.49 ± 0.18 nM | 0.5 ± 0.17 nM | 1.47 ± 1.66 nM | significant increase; also recorded: significant LH secretion | 5.75 ± 1.45 nM | 4.55 ± 1.57 nM | high potency | magnitude of the induced LH discharge ([9]; compared with GnRH): comparable with that observed in response to GnRH; EC50 ([7]; Table 6 (native peptides and analogues), PKA activation, listed as NKBa, read-out: EC50 using CRE-Luc, zfTac3rb): 16 nM; potency ([10]; both zebrafish tac3 receptors, in both signal transduction systems): most potent among all tachykinins examined; effectiveness in the transactivation assay ([10]; native peptides versus analogues, Example 12): most effective peptide
CC[C@H](C)[C@H](NC(=O)CNC(=O)[C@@H](NC(=O)[C@@H](N)CO)[C@@H](C)O)C(=O)N[C@@H](CC(N)=O)C(=O)N[C@@H](CCCNC(=N)N)C(=O)N[C@@H](CCC(=O)O)C(=O)N[C@@H](C)C(=O)N[C@@H](Cc1c[nH]cn1)C(=O)N[C@@H](CC(C)C)C(=O)N1CCC[C@H]1C(=O)N[C@@H](Cc1ccccc1)C(=O)N[C@@H](CCCNC(=N)N)C(=O)N1CCC[C@H]1C(=O)N[C@@H](CC(N)=O)C(=O)N[C@@H](CCSC)C(=O)N[C@@H](CC(N)=O)C(=O)N[C@@H](CC(=O)O)C(=O)N[C@H](C(=O)N[C@@H](Cc1ccccc1)C(=O)N[C@H](C(=O)NCC(=O)N[C@@H](CC(C)C)C(=O)N[C@@H](CC(C)C)C(N)=O)C(C)C)[C@@H](C)CC [zfNKBb] (H-STGINREAHLPFRPNMNDIFVGLL-NH2; N-terminus assumed) | 6.06 nM | 15.3 ± 18.3 nM | 99.6 ± 12.9 nM | 191 nM | lowest effect | 204 ± 139 nM | 8.96 ± 1.19 nM | 33.8 ± 14.7 nM | significant increase; also recorded: less pronounced | 237 ± 134 nM | 519 ± 160 nM | relatively low potency | EC50 ([3]; Table 7 (native peptides and analogues), PKC activation, listed as NKBb, read-out: EC50 using SRE, zfTac3rb): 15.3 nM; EC50 ([6]; Table 6 (native peptides and analogues), PKA activation, listed as NKBb, read-out: EC50 using CRE-Luc, zfTac3ra): 99.6 nM; luciferase activity ([10]; both SRE-Luc and CRE-Luc, both signal transduction pathways): less effective than the other forms; activation of the piscine NKB receptors ([10]; zebrafish tac3ra and tac3rb, FIGS. 11A, B, D, E): lowest effect
